The structures appear in SMILES notation. Values joined by “and” are separate entries in the source; they are usually repeats but may differ in a detail not shown here. Equal entries are not always repeated. Where two headings read alike, the source gives them in different places.

We go through one compound from patent publication US20190100549A1, “FLAVONOIDE-TYPE COMPOUNDS BEARING AN O-RHAMNOSYL RESIDUE” (Universitaet Hamburg, priority 2016, published 2019).

Data set [1] deals with lipid peroxides (C11-fluor) in NHEK cells. The data set can be described thus: Protection against UV-induced lipid peroxide in NHEK (C11-fluor probe, flow cytometry). It counts as cell-based, human. As for the experimental part: Pre-incubated NHEK were incubated with the test compound for 24 h. Then the specific fluorescence probe for the measurement of hydrogen peroxide (DHR) or lipid peroxides (C11-fluor) was added and incubated for 45 min. Irradiation occurred with in H2O2 determination UVB at 180 mJ/cm^2 (+UVA at 2839 mJ/cm^2) or UVB at 240 mJ/cm^2 (+UVA at 3538 mJ/cm^2) in lipid peroxide, respectively, using a SOL500 Sun Simulator lamp. After irradiation the cells were post-incubated for 30 min before flow-cytometry analysis.
For orientation: In flow cytometry, cells or beads pass a laser one at a time.

The subject of data set [2] is TNF-α. The data set can be described thus: TNF-α release in stimulated NHEK (ELISA). The settings on record: Homo sapiens, NHEK, poly(I:C), read-out: TNFα Inhibition %. Type of data set: cell-based, human. As to the method: (§1) NHEK were pre-incubated for 24 h with the test compounds. The medium was replaced with the NHEK culture medium containing the inflammatory inducers (PMA or Poly I:C) and incubated for another 24 hours. Positive and negative controls ran in parallel. At the endpoint the culture supernatants were quantified of secreted IL-8, PGE2 and TNF-α by means of ELISA.
A general note: An ELISA detects its analyte on a solid surface through an enzyme-linked reagent.

Data set [3] has as its system IL-8. The data set can be described thus: IL-8 release in stimulated NHEK (ELISA). Type of data set: cell-based, human. Conditions: Homo sapiens, NHEK. As to the method:
as §1

A short description of data set [4]: Water solubility of naringenin-5-rhamnoside (0.2 μm filtered solutions, HPLC). Type of data set: physicochemical. The settings on record: read-out: maximum water solubility. As to the method: FIG. 1: Determination of solubility of naringenin-5-O-α-L-rhamnoside (NR1) in water. Defined concentrations of NR1 were 0.22 μm-filtered before injection to HPLC. Soluble concentrations were calculated from peak areas by determined regression curves.
FIG. 1 illustrates the amounts of Naringenin-5-rhamnoside recaptured from a RP18 HPLC-column after loading of a 0.2 μm filtered solution containing defined amounts up to 25 mM of the same. Amounts were calculated from a regression curve.

In data set [5] the test system is PGE2. Briefly: PGE2 release in stimulated NHEK (ELISA). It counts as cell-based, human. The settings on record: Homo sapiens, NHEK; PMA 1 μg/ml; 100 μM. As to the method:
as §1

The test system of data set [6] is normal human epidermal keratinocytes (NHEK). Briefly: Cytotoxicity on NHEK monolayer cultures (MTT reduction assay and morphological observation). Type of data set: cell-based. Conditions: for Viability (%): single values, listed as Nar-5-Rha. As to the method: To determine the cytotoxicity of flavonoid-5-O-α-L-rhamnosides tests were performed versus their aglycon derivatives in cell monolayer cultures. For this purpose concentrations ranging from 1 μM to 250 μM were chosen. The viability of normal human epidermal keratinocytes (NHEK) was twice evaluated by a MTT reduction assay and morphological observation with a microscope. NHEK were grown at 37° C. and 5% CO2 aeration in Keratinocyte-SFM medium supplemented with epidermal growth factor (EGF) at 0.25 ng/mL, pituitary extract (PE) at 25 μg/mL and gentamycin (25 μg/mL) for 24 h and were used at the 3rd passage. For cytotoxicity testing, pre-incubated NHEK were given fresh culture medium containing a specific concentration of test compound and incubated for 24 h. After a medium change at same test concentration cells were incubated a further 24 h until viability was determined. Test results are given in Table B2 and illustrated in FIG. 10.
(Tetrazolium assays rely on reduction of a dye to a coloured formazan, in cell work by metabolically active cells.)

For `C[C@@H]1O[C@@H](Oc2cc(O)cc3c2C(=O)CC(c2ccc(O)cc2)O3)[C@H](O)[C@H](O)[C@H]1O` (mixture of isomers) [NR1, Naringenin-5-O-α-L-rhamnoside], the “anti-oxidative function on lipid peroxides (in words)” value in data set [1] was “anti-oxidative function”. The inhibition – broadly, the share of the control response that was lost under treatment – at 100 µM in data set [2] amounted to 8%; in data set [3] (PMA), 12%; in data set [3] (poly(I:C)) it was 14%; in data set [5], 21%. For the same compound, the solubility (commonly the concentration that dissolves in the medium under given conditions) in data set [4] (equivalent of 10 mmol/L) is around 4200 µg/mL; in data set [4], around 10 mM. For the same compound, the “Viability (%) Mean” value in data set [6] (1 μM) stood at 101%; in data set [6] (2.5 μM), 93%; in data set [6] (5 μM) it was 86%; in data set [6] (10 μM), 97%; in data set [6] (25 μM), 95%; in data set [6] (50 μM) it was 84%. For the same compound, the entries for the “Viability (%) Mean” value in data set [6] (100 μM) and in data set [6] (250 μM) were 86% and 83%, respectively. The “Viability (%)” value in data set [6] (1 μM) was 91% and 111%; in data set [6] (2.5 μM) it was 92% and 93%; in data set [6] (5 μM), 85% and 88%; in data set [6] (10 μM) it was 94% and 100%; in data set [6] (25 μM), 92% and 98%; in data set [6] (50 μM), 78% and 91%. For the same compound, the “Viability (%)” value was 82% and 90% in data set [6] (100 μM); 79% and 87% in data set [6] (250 μM).
